In general, melting point refers to the temperature, or range, at which the solid turns liquid.

Series [1] concerns the target histamine H1 receptor (Homo sapiens, UniProt P35367). As to the kind of experiment: antagonistic action to histamine H1 receptor.
The target of series [2] is T1, intracerebral receptor (Mus musculus, UniProt P70174).
T1 construct: from tissue; host or cells: mouse brain
As to the kind of experiment: intracerebral receptor binding test by oral administration to mice. The format is in vivo.

histamine H1 receptor, sequence (P35367 whole entry, species assumed): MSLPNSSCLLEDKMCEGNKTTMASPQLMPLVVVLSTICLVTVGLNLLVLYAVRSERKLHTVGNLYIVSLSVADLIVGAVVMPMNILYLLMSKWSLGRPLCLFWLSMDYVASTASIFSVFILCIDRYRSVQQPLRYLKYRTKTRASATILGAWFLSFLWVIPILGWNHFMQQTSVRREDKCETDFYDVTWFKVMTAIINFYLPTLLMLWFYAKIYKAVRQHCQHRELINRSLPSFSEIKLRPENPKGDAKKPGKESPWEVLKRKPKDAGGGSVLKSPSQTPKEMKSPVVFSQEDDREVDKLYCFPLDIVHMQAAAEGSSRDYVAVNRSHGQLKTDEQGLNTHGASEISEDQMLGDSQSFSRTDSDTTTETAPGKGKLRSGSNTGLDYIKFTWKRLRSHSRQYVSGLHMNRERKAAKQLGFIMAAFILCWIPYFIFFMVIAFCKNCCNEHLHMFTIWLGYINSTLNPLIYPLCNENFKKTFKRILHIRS
T1 sequence (P70174 whole entry): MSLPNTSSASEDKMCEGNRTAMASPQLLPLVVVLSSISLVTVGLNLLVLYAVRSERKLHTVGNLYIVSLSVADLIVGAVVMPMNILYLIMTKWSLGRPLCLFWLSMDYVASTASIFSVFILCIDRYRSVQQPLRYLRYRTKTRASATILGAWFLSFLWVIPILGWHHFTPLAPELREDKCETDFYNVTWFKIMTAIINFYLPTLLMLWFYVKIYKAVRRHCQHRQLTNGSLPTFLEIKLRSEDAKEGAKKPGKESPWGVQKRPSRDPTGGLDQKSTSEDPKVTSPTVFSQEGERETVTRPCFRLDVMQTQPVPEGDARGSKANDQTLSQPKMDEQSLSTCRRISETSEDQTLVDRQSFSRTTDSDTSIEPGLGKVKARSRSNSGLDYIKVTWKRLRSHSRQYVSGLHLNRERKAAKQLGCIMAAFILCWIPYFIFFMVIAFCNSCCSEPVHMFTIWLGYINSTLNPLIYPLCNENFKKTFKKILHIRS

As to `CCOC(=O)N1CCC(=C2c3ccccc3CCc3sccc32)CC1` [Compound 1, ethyl 4-(9,10-dihydro-1-thiabenzo[f]-azulen-4-ylidene)piperidine-1-carboxylate], the melting point lay within 110 to 113 °C. On the same count and under the same terms, for `CCOC(=O)N1CCC(=C2c3ccccc3CCc3sc(C=O)cc32)CC1` [Compound 2, ethyl 4-(2-formyl-9,10-dihydro-1-thia-benzo[f]azulen-4-ylidene)piperidine-1-carboxylate] the value was 146 to 149 °C. Same read-out and setting: the same measure for `CCOC(=O)N1CCC(=C2c3ccccc3CCc3sc(C=CC(=O)O)cc32)CC1` [Compound 3, 3-[4-(1-ethoxycarbonylpiperidin-4-ylidene)-9,10-dihydro-4H-1-thiabenzo[f]azulen-2-yl]acrylic acid]: 228 °C (dec.). As to `O=C(O)C=Cc1cc2c(s1)CCc1ccccc1C2=C1CCNCC1` [Compound 4, 3-(4-piperidin-4-ylidene-9,10-dihydro-4H-1-thiabenzo[f]azulen-2-yl)acrylic acid], the melting point was 269 to 272 °C (dec.).

For `O=C(O)CCc1cc2c(s1)C=Cc1ccccc1C2=C1CCNCC1` [Compound 5, 3-(4-piperidin-4-ylidene-4H-1-thiabenzo-[f]azulen-2-yl)propionic acid], the melting point was 254 °C (dec.). Also, in series [1], the “antagonistic action to histamine H1 receptor” value is reported as “excellent antagonistic action” and the antihistaminic action entry is listed as “excellent antihistaminic action”. Further, in series [2], the intracerebral transmigration entry is reported as “low intracerebral transmigration”. For the compound `CC(C)(C)OC(=O)N1CCC(=C2c3ccccc3CCc3sc(C=CC(=O)O)cc32)CC1` [Compound 6, 3-[4-(1-tert-butoxycarbonylpiperidin-4-ylidene)-9,10-dihydro-4H-1-thiabenzo[f]azulen-2-yl]acrylic acid], the melting point is 186 °C (dec.). Turning to `CC(C)(C)OC(=O)N1CCC(=C2c3ccccc3C=Cc3sc(CCC(=O)O)cc32)CC1` [Compound 7, 3-[4-(1-tert-butoxycarbonylpiperidin-4-ylidene)-4H-1-thiabenzo[f]azulen-2-yl]propionic acid], the melting point is 172 °C (dec.). The same measure, in the same setting: for `CCOC(=O)C=Cc1cc2c(s1)CCc1ccccc1C2=C1CCN(C(=O)OCC)CC1` [Compound 8, ethyl 4-[2-(2-ethoxycarbonylvinyl)-9,10-dihydro-1-thiabenzo[f]azulen-4-ylidene]piperidine-1-carboxylate] the value was 90 to 93 °C. Compound `CN1CCC(=C2c3ccccc3CCc3sc(Br)cc32)CC1` [Compound 11, 4-(2-bromo-9,10-dihydro-1-thiabenzo[f]-azulen-4-ylidene)-1-methylpiperidine] showed a melting point of 141 to 142 °C.
